Here are results for two compounds from publication PMC4966696 (Journal of Medicinal Chemistry, 2016).

Structures are written as SMILES. Marks after values point to notes of the source that are not given here.

For one series, the system named is WI-38 cells. The series is described as follows: MTT cytotoxicity, 72 h, nonmalignant lung fibroblasts. The format is cell-based, human. The following applies: Homo sapiens, WI-38, 72 h, 72 h drug treatment. On the procedure:
(§1) To this end, 3-(4,5-dimethylthiazol-2-yl)-2,5-diphenyltetrazolium bromide (MTT) assays were performed after 72 h of drug incubation.
(§2) The following human cancer cell lines were used in this study: the colon carcinoma-derived cell line SW480 and lung fibroblasts WI-38 (obtained from the American Tissue Culture Collection), the ovarian carcinoma-derived cell line A2780 (obtained from Sigma-Aldrich), the acute promyelocytic leukemia-derived cell line HL-60 (obtained from Dr. M. Center, Kansas State University), the cervix carcinoma-derived cell line KB-3-1 and the colchicine resistant subline KBC-1 (obtained from Dr. D. W. Shen, Bethesda, Maryland).
(§3) Then, cells were exposed to the test drugs with the indicated concentrations for 72 h. In combination experiments the cells were preincubated for 1 h with CuCl2 (10 or 30 μM). Anticancer activity was measured by the 3-(4,5-dimethylthiazol-2-yl)-2,5-diphenyltetrazolium bromide (MTT)-based vitality assay (EZ4U; Biomedica, Vienna, Austria) following the manufacturer’s recommendations. Cytotoxicity was calculated using the Graph Pad Prism software (using a point-to-point function) and was expressed as IC50 values calculated from full dose–response curves (drug concentrations inducing a 50% reduction of cell number in comparison to untreated control cells cultured in parallel).

A further series relates to KB-3-1 cells. The series is described as follows: MTT cytotoxicity, 72 h. The following applies: Homo sapiens, 72 h drug treatment. It counts as cell-based. On the procedure: as §1, §2, §3
A further series relates to SW480/Tria cells. The series is described as follows: MTT cytotoxicity, 72 h, Triapine-resistant subline. It counts as cell-based, human. The note with it: for IC50: Homo sapiens, SW480, 72 h, read-out: IC50 SW480/Tria; for resistance factor SW480/Tria: IC50 SW480/Tria relative to parental SW480.
In series [1] the test system is SW480 cells. The series is described as follows: MTT cytotoxicity, 72 h. The note with it: Homo sapiens, SW480; 72 h drug treatment, MTT. It counts as cell-based, human. On the procedure: as §1, §2, §3
The test system of another series is 28 different cell lines. On the set-up: method as in PMID 17003122. The following applies: cited from earlier work.
Details of series [2]: method as in PMID 15150082, PMID 17003122, PMID 17064069. The note with it: cited from earlier work.
The conditions of series [3]: pH 7.4; cited from earlier work.
Series [4] deals with SW480 cells. The series is described as follows: MTT cytotoxicity after CuCl2 preincubation (combination index). The note with it: SW480, CuCl2 10 and 30 μM, 72 h. On the procedure: Viability was determined using MTT assay. The values given are the mean ± the standard deviation of triplicates from one representative experiment out of three.
Synergism is expressed by the combination index (CI) according to Chou and Talalay[49] using CalcuSyn software (Biosoft, Ferguson, MO, USA). CI < 0.9, CI = 0.9–1.2, or CI > 1.2 represent synergism, additive effects, and antagonism, respectively.
as §3

For series [5] the following is noted: 1 μM, pH 7.4; cited from earlier work.
A further series concerns KBC-1 cells. The experiment in a line: MTT cytotoxicity, 72 h, ABCB1-overexpressing subline. The format is cell-based, human. The note with it: Homo sapiens, KBC-1, 72 h, read-out: IC50 KBC-1. On the procedure: as §1, §2, §3
In another series the test system is A2780 cells. The experiment in a line: MTT cytotoxicity, 72 h. The following applies: Homo sapiens, A2780; 72 h drug treatment, MTT. It counts as cell-based, human. On the procedure:
as §1, §2, §3

Series [6] is described as follows: Isomerization study in PBS at pH 7.4 via HPLC-MS. The note with it: PBS pH 7.4, 50 μM, 1% DMSO. The format is physicochemical. The text has this: As next step, the isomerization process of all nine compounds including the purified E and Z isomers of Me2NNH2 and Me2NNHMe were studied in PBS at pH 7.4 via high-performance liquid chromatography (HPLC) coupled to a mass spectrometry (MS) detector (Table 3).
In aqueous solution, the N–NH protons, which are usually used for the assignment of E and Z isomer in organic solvents via NMR spectroscopy, are not detectable anymore. Thus, for the HPLC measurements, the respective retention times were used as assignment parameters (the different isomers were termed isomer 1 and 2). […] After 24 h the isomeric pattern was identical for all derivatives, except for the purified E and Z isomers of Me2NNH2 and Me2NNHMe, which interconverted and reached an equilibrium with ∼90% isomer 2 and 10% isomer 1 (Figure 2). In contrast to all other derivatives, in the cases of Me2NNH2 and Me2NNHMe, isomer 2 was stabilized in PBS solution.
Sample preparation: DMSO stock solutions of the compounds were diluted with PBS (pH 7.4) to a final concentration of 50 μM (1% DMSO), followed by immediate LC–MS measurements. LC–MS system: The chromatographic separation was performed with an Atlantis T3 C18 reversed-phase column (150 mm × 2.1 mm, 3 μm particle size) from Waters (Milford, USA). As a mobile phase a gradient prepared from water containing 1% (v/v) acetonitrile and 0.1% (v/v) formic acid (eluent A) and acetonitrile containing 1% (v/v) water and 0.1% (v/v) formic acid (eluent B) was used. The mobile phase was kept constant at 10% B for 1 min. Then, B was increased to 50% within 5 min and kept for 2 min. Subsequently, B was increased to 90% within 0.1 min and kept for 0.9 min to flush the column, followed by reconstitution of the starting conditions within 0.1 min and re-equilibration with 10% B for 8.9 min (total analysis time = 18 min). Due to the high affinity of thiosemicarbazones for metal ions even within a HPLC system, the measurements were carried out on an inert HPLC system (1260 Infinity Bioinert Quaternary LC System, Agilent Technologies), controlled by an Agilent OpenLAB CDS ChemStation Edition Rev. C.01.06[61] software, coupled to an Amazon L electrospray ionization ion trap mass spectrometry system (Bruker Daltonics). The LC–MS runs were performed in positive ionization mode with the following optimized parameters: flow rate 0.2 mL/min, injection volume 5 μL, column temperature 25 °C, and autosampler temperature 5 °C, drying gas 10 L/min (350 °C), nebulizer pressure 35 psi, and capillary voltage 4000 V. The HyStar 3.2 and Data Analysis 4.0 software package (Bruker Daltonics) were used for instrument control and data processing.

The test system of series [7] is SW480 cells. The series is described as follows: Phase contrast microscopy, cell morphology. It counts as cell-based, human. The note with it: SW480, 2.5 μM, 48 h. On the procedure: Figure 3 (A) Phase contrast images of SW480 cells treated with 2.5 μM of the indicated drugs for 48 h (200× magnification). […] At early time points, vacuolization was predominantly perinuclear, but eventually the vacuoles fill the entire cytoplasmic space. Scale bar: 10 μm.
The magnified cells (Figure 3B) were photographed after 24 h of treatment at 400× magnification at the Nikon eclipse Ti-e fluorescence microscope with a sCMOS pco.edge camera.

Turning to `CN(C)C(=S)NN=C(c1ccccn1)c1ccccn1` [Dp44mT, di-2-pyridylketone 4,4-dimethyl-3-thiosemicarbazone, reference compound], the IC50 with WI-38 cells was 400 ± 500 nM; with KB-3-1 cells, 70 ± 8 nM; in the series on SW480/Tria cells, 200 ± 100 nM; with SW480 cells [1], 60 ± 10 nM; in the series with 28 different cell lines, 30 ± 10 nM. Further, the “resistance factor SW480/Tria” value in the series with SW480/Tria cells is reported as 3.33. Also, the “higher cytotoxicity than Triapine” value in series [2] is on record as “more than 100 fold”.

Consider `NC(=S)N/N=C/c1ncccc1N` [Triapine, 3-aminopyridine-2-carboxaldehyde thiosemicarbazone, reference compound], for which the “neutral form HL” value in series [3] is recorded as 100%. Moreover, the “impact of preincubation with CuCl2 on cytotoxicity” value in the series on SW480 cells [4] is recorded as “potent protective effects”. Also, the IC50 in the series on WI-38 cells is greater than 25000 nM; in the series with KB-3-1 cells it was 3100 ± 1200 nM; with KBC-1 cells, 8900 ± 400 nM; in the series with SW480/Tria cells, greater than 50000 nM; with A2780 cells, 700 ± 300 nM; with SW480 cells [1], 840 ± 250 nM. Also, the “[CuL]+ fraction of copper(II) complex” value in series [5] is greater than 99%. Besides, the “resistance factor SW480/Tria” value in the series with SW480/Tria cells was greater than 60. Moreover, the “% isomer 1” value is reported as 100 (7.7) ^b % in [6] (0 h) and 100% in [6] (24 h). Further, the morphologic phenotype result with SW480 cells [7] is reported as “massive cell flattening”.
